Where two headings read alike, the source gives them in different places.
What was measured:
[1] = biological target: T1, β 5i (chymotrypsin-like activity) (Homo sapiens, UniProt P20618+P28062); experiment: Cell-Based Proteasome subunit activity/selectivity assay, β5i, substrate (ANW)2Rh110; conditions: Ramos cells; substrate (ANW)2Rh110 (β5i); highest concentration tested 20 μM; read-out: Ic50:ramos:ac-(anw)2-r110
T1 construct: protease activity associated with the proteasome complex in cultured cells; endogenous in cells; host or cells: Ramos cells
Outline: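 Cell-based fluorogenic assay measuring chymotrypsin-like β5i proteasome activity using the substrate (ANW)2Rh110. Cultured cells received 0.5 μl of 100× 4-fold serial diluted compounds or DMSO per well, were incubated 30 minutes at 37° C, then equilibrated 15 minutes at room temperature. After shaking one minute @ 700 rpm and 120 min room-temperature incubation, fluorescence was read at 500 nm excitation/519 nm emission on an Envision reader.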

[2] = biological target: T2, β5c (chymotrypsin-like activity) (Homo sapiens, UniProt P20618+P28074); experiment: Cell-Based Proteasome subunit activity/selectivity assay, β5c, substrate (WLA)2Rh110
T2 construct: protease activity associated with the proteasome complex in cultured cells; endogenous in cells; host or cells: Ramos cells
Outline: (§1)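 Subunit activity in cultured cells read with subunit-selective fluorogenic Rh110 substrates: (LLE)2 for β1c, (PAL)2 for β1i, (KQL)2 for β2c/2i, (WLA)2 for β5c. Cells exposed to 4-fold serially diluted compound (top 20 μM) 30 min at 37 °C, then substrate 120 min at room temperature; fluorescence 500/519 nm.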

β 2c/2i (trypsin-like) = experiment: Cell-Based Proteasome subunit activity/selectivity assay, β2c/2i, substrate (KQL)2Rh110; conditions: Ramos cells; substrate (KQL)2Rh110 (β2c/2i); highest concentration tested 20 μM
Outline: as §1

β 1i (caspase-like) = biological target: T3, β 1i (caspase-like) (Homo sapiens, UniProt P28065+P40306); experiment: Cell-Based Proteasome subunit activity/selectivity assay, β1i, substrate (PAL)2Rh110
T3 construct: protease activity associated with the proteasome complex in cultured cells; endogenous in cells; host or cells: Ramos cells
Outline: as §1

β 1c (caspase-like) = biological target: T4, β 1c (caspase-like) (Homo sapiens, UniProt P28072+Q99436); experiment: Cell-Based Proteasome subunit activity/selectivity assay, β1c, substrate (LLE)2Rh110
T4 construct: protease activity associated with the proteasome complex in cultured cells; endogenous in cells; host or cells: Ramos cells
Outline: as §1

[3] = Ramos cells, substrate (WLA)2Rh110 (β5c), highest concentration tested 20 μM, read-out: Ic50:ramos:rh110-(wla)2
[4] = Ramos cells, substrate (PAL)2Rh110 (β1i), highest concentration tested 20 μM, read-out: Ic50:ramos:rh110-(pal)2
[5] = Ramos cells, substrate (LLE)2Rh110 (β1c), highest concentration tested 20 μM, read-out: Ic50:ramos:rh110-(lle)2

## COc1ccc(C(=O)NCCn2cc(C(=O)NCc3ccc(SC)cc3)nn2)c(OC)c1OC [Example 6, 1-[2-(2,3,4-Trimethoxy-benzoylamino)-ethyl]-1H-[1,2,3]triazole-4-carboxylic acid 4-methylsulfanyl-benzylamide]
[1]
  IC50: 0.919 µM
[2]; [3]
  IC50: ≥ 20 µM
β 2c/2i (trypsin-like)
  IC50: ≥ 20 µM
β 1i (caspase-like); [4]
  IC50: ≥ 20 µM
β 1c (caspase-like); [5]
  IC50: ≥ 20 µM

## CCc1ccc(C(C#N)NC(=O)c2cn(CCNC(=O)c3ccc(F)cc3OC)nn2)cc1 (stereo not drawn) [Example 36, 1-[2-(4-Fluoro-2-methoxy-benzoylamino)-ethyl]-1H-[1,2,3]triazole-4-carboxylic acid [cyano-(4-ethyl-phenyl)-methyl]-amide]
[1]
  IC50: 2.06 µM
[2]; [3]
  IC50: ≥ 20 µM
β 2c/2i (trypsin-like)
  IC50: ≥ 20 µM
β 1i (caspase-like); [4]
  IC50: ≥ 20 µM
β 1c (caspase-like); [5]
  IC50: ≥ 20 µM

## CCc1ccc(C(C#N)NC(=O)c2cn(CCNC(=O)c3ccc(OC)c(OC)c3OC)nn2)nc1 (stereo not drawn) [Example 63, 1-[2-(2,3,4-Trimethoxy-benzoylamino)-ethyl]-1H-[1,2,3]triazole-4-carboxylic acid [cyano-(5-ethyl-pyridin-2-yl)-methyl]-amide]
[1]
  IC50: 2.49 µM
[2]; [3]
  IC50: ≥ 20 µM
β 2c/2i (trypsin-like)
  IC50: ≥ 20 µM
β 1i (caspase-like); [4]
  IC50: ≥ 20 µM
β 1c (caspase-like); [5]
  IC50: ≥ 20 µM

## CCc1ccc(C(C#N)NC(=O)c2cn(CCN3Cc4ccccc4C3=O)nn2)cc1 (stereo not drawn) [Example 46, 1-[2-(1-Oxo-1,3-dihydro-isoindol-2-yl)-ethyl]-1H-[1,2,3]triazole-4-carboxylic acid [cyano-(4-ethyl-phenyl)-methyl]-amide]
[1]
  IC50: 5.94 µM
[2]; [3]
  IC50: 16.1 µM
β 2c/2i (trypsin-like)
  IC50: ≥ 20 µM
β 1i (caspase-like); [4]
  IC50: ≥ 20 µM
β 1c (caspase-like); [5]
  IC50: ≥ 20 µM

## COc1ccc(C(=O)NCCn2cc(C(=O)NC(C#N)c3ccccc3Br)nn2)c(OC)c1OC (stereo not drawn) [Example 59, 1-[2-(2,3,4-Trimethoxy-benzoylamino)-ethyl]-1H-[1,2,3]triazole-4-carboxylic acid [(2-bromo-phenyl)-cyano-methyl]-amide]
[1]
  IC50: 5.67 µM
[2]; [3]
  IC50: ≥ 20 µM
β 2c/2i (trypsin-like)
  IC50: ≥ 20 µM
β 1i (caspase-like); [4]
  IC50: ≥ 20 µM
β 1c (caspase-like); [5]
  IC50: ≥ 20 µM

## COc1ccc(C(=O)NCCn2cc(C(=O)NCc3ccc(C)c(C)c3)nn2)c(OC)c1OC [Example 4, 1-[2-(2,3,4-Trimethoxy-benzoylamino)-ethyl]-1H-[1,2,3]triazole-4-carboxylic acid 3,4-dimethyl-benzylamide]
[1]
  IC50: 4.11 µM
[2]; [3]
  IC50: ≥ 20 µM
β 2c/2i (trypsin-like)
  IC50: ≥ 20 µM
β 1i (caspase-like); [4]
  IC50: ≥ 20 µM
β 1c (caspase-like); [5]
  IC50: ≥ 20 µM

## CCCc1ccc(C(C#N)NC(=O)c2cn(CCNC(=O)c3ccc(OC)c(OC)c3OC)nn2)cc1 (stereo not drawn) [Example 64, 1-[2-(2,3,4-Trimethoxy-benzoylamino)-ethyl]-1H-[1,2,3]triazole-4-carboxylic acid [cyano-(4-propyl-phenyl)-methyl]-amide]
[1]
  IC50: 0.127 µM
[2]; [3]
  IC50: 8.31 µM
β 2c/2i (trypsin-like)
  IC50: ≥ 20 µM
β 1i (caspase-like); [4]
  IC50: 10.1 µM
β 1c (caspase-like); [5]
  IC50: 9.68 µM

## COc1ccc(C(=O)NCCn2cc(C(=O)NC(C#N)c3ccc4ccsc4c3)nn2)c(OC)c1OC (stereo not drawn) [Example 66, 1-[2-(2,3,4-Trimethoxy-benzoylamino)-ethyl]-1H-[1,2,3]triazole-4-carboxylic acid (benzo[b]thiophen-6-yl-cyano-methyl)-amide]
[1]
  IC50: 0.795 µM
[2]; [3]
  IC50: ≥ 20 µM
β 2c/2i (trypsin-like)
  IC50: ≥ 20 µM
β 1i (caspase-like); [4]
  IC50: ≥ 20 µM
β 1c (caspase-like); [5]
  IC50: ≥ 20 µM

## COc1ccc(C(=O)NCCn2cc(C(=O)NC(C#N)c3ccc(OC(F)(F)F)cc3)nn2)c(OC)c1OC (stereo not drawn) [Example 10, 1-[2-(2,3,4-Trimethoxy-benzoylamino)-ethyl]-1H-[1,2,3]triazole-4-carboxylic acid [cyano-(4-trifluoromethoxy-phenyl)-methyl]-amide]
[1]
  IC50: 0.886 µM
[2]; [3]
  IC50: ≥ 20 µM
β 2c/2i (trypsin-like)
  IC50: ≥ 20 µM
β 1i (caspase-like); [4]
  IC50: ≥ 20 µM
β 1c (caspase-like); [5]
  IC50: ≥ 20 µM

## COc1ccc(C(=O)NCCn2cc(C(=O)NC(C#N)c3ccc(C(F)(F)F)cc3)nn2)c(OC)c1OC (stereo not drawn) [Example 60, 1-[2-(2,3,4-Trimethoxy-benzoylamino)-ethyl]-1H-[1,2,3]triazole-4-carboxylic acid [cyano-(4-trifluoromethyl-phenyl)-methyl]-amide]
[1]
  IC50: 0.619 µM
[2]; [3]
  IC50: ≥ 20 µM
β 2c/2i (trypsin-like)
  IC50: ≥ 20 µM
β 1i (caspase-like); [4]
  IC50: ≥ 20 µM
β 1c (caspase-like); [5]
  IC50: ≥ 20 µM

## CC(CCc1ccccc1)NC(=O)c1cn(CCNC(=O)c2ccc(C(F)(F)F)cc2F)nn1 (stereo not drawn) [Example 79, 1-[2-(2-Fluoro-4-trifluoromethyl-benzoylamino)-ethyl]-1H-[1,2,3]triazole-4-carboxylic acid (1-methyl-3-phenyl-propyl)-amide]
[1]
  IC50: 0.159 µM
[2]; [3]
  IC50: 3.39 µM
β 2c/2i (trypsin-like)
  IC50: ≥ 20 µM
β 1i (caspase-like); [4]
  IC50: 0.976 µM
β 1c (caspase-like); [5]
  IC50: ≥ 20 µM

## CCc1ccc(C(C#N)NC(=O)c2cn(CCNC(=O)c3ccccc3OC(F)(F)F)nn2)cc1 (stereo not drawn) [Example 24, 1-[2-(2-Trifluoromethoxy-benzoylamino)-ethyl]-1H-[1,2,3]triazole-4-carboxylic acid [cyano-(4-ethyl-phenyl)-methyl]-amide]
[1]
  IC50: 0.779 µM
[2]; [3]
  IC50: ≥ 20 µM
β 2c/2i (trypsin-like)
  IC50: ≥ 20 µM
β 1i (caspase-like); [4]
  IC50: ≥ 20 µM
β 1c (caspase-like); [5]
  IC50: ≥ 20 µM

## CCc1ccc(C(C#N)NC(=O)c2cn(CCNC(=O)c3ccc(S(C)(=O)=O)cc3Cl)nn2)cc1 (stereo not drawn) [Example 41, 1-[2-(2-Chloro-4-methanesulfonyl-benzoylamino)-ethyl]-1H-[1,2,3]triazole-4-carboxylic acid [cyano-(4-ethyl-phenyl)-methyl]-amide]
[1]
  IC50: 0.282 µM
[2]; [3]
  IC50: ≥ 20 µM
β 2c/2i (trypsin-like)
  IC50: ≥ 20 µM
β 1i (caspase-like); [4]
  IC50: ≥ 20 µM
β 1c (caspase-like); [5]
  IC50: ≥ 20 µM

## COc1ccc(C(=O)NCCn2cc(C(=O)N[C@@H](CCc3ccccc3)C(=O)O)nn2)c(OC)c1OC [Example 83, (S)-4-Phenyl-2-({1-[2-(2,3,4-trimethoxy-benzoylamino)-ethyl]-1H-[1,2,3]triazole-4-carbonyl}-amino)-butyric acid]
[1]
  IC50: 0.921 µM
[2]
  IC50: 8.36 µM
β 2c/2i (trypsin-like)
  IC50: ≥ 20 µM
β 1i (caspase-like)
  IC50: ≥ 20 µM
β 1c (caspase-like)
  IC50: ≥ 20 µM

## O=C(CCNC(=O)c1cn(CCNC(=O)c2ccc(C(F)(F)F)cc2F)nn1)c1ccccc1 [Example 78]
[1]
  IC50: 0.176 µM
[2]; [3]
  IC50: 14.3 µM
β 2c/2i (trypsin-like)
  IC50: ≥ 20 µM
β 1i (caspase-like); [4]
  IC50: ≥ 20 µM
β 1c (caspase-like); [5]
  IC50: ≥ 20 µM

## CCc1ccc(C(C#N)NC(=O)c2cn(CCNC(=O)c3ccc(Cl)cc3F)nn2)cc1 (stereo not drawn) [Example 31, 1-[2-(4-Chloro-2-fluoro-benzoylamino)-ethyl]-1H-[1,2,3]triazole-4-carboxylic acid [cyano-(4-ethyl-phenyl)-methyl]-amide]
[1]
  IC50: 0.134 µM
[2]; [3]
  IC50: 16.1 µM
β 2c/2i (trypsin-like)
  IC50: ≥ 20 µM
β 1i (caspase-like); [4]
  IC50: ≥ 20 µM
β 1c (caspase-like); [5]
  IC50: ≥ 20 µM

## COc1ccc(C(=O)NCCn2cc(C(=O)NC(C#N)c3cccc4ccccc34)nn2)c(OC)c1OC (stereo not drawn) [Example 57, 1-[2-(2,3,4-Trimethoxy-benzoylamino)-ethyl]-1H-[1,2,3]triazole-4-carboxylic acid (cyano-naphthalen-1-yl-methyl)-amide]
[1]
  IC50: 6.49 µM
[2]
  IC50: ≥ 20 µM
β 2c/2i (trypsin-like)
  IC50: ≥ 20 µM
β 1i (caspase-like)
  IC50: ≥ 20 µM
β 1c (caspase-like)
  IC50: ≥ 20 µM

## O=C(N[C@@H](CCc1ccccc1)C(=O)O)c1cn(CCNC(=O)c2ccc(C(F)(F)F)cc2F)nn1 [Example 82, (S)-2-({1-[2-(2-Fluoro-4-trifluoromethyl-benzoylamino)-ethyl]-1H-[1,2,3]triazole-4-carbonyl}-amino)-4-phenyl-butyric acid]
[1]
  IC50: 0.163 µM
[2]; [3]
  IC50: ≥ 20 µM
β 2c/2i (trypsin-like)
  IC50: ≥ 20 µM
β 1i (caspase-like); [4]
  IC50: ≥ 20 µM
β 1c (caspase-like); [5]
  IC50: ≥ 20 µM

## CCc1ccc(C(C#N)NC(=O)c2cn(CCNC(=O)c3cccnc3OC)nn2)cc1 (stereo not drawn) [Example 29, N-[2-(4-{[Cyano-(4-ethyl-phenyl)-methyl]-carbamoyl}-[1,2,3]triazol-1-yl)-ethyl]-2-methoxy-nicotinamide]
[1]
  IC50: 3.05 µM
[2]; [3]
  IC50: ≥ 20 µM
β 2c/2i (trypsin-like)
  IC50: ≥ 20 µM
β 1i (caspase-like); [4]
  IC50: ≥ 20 µM
β 1c (caspase-like); [5]
  IC50: ≥ 20 µM

## CCc1ccc(C(C#N)NC(=O)c2cn(CCNC(=O)c3ccc(C(F)(F)F)cc3OC)cn2)cc1 (stereo not drawn) [Example 92, 1-[2-(2-Methoxy-4-trifluoromethyl-benzoylamino)-ethyl]-1H-imidazole-4-carboxylic acid [cyano-(4-ethyl-phenyl)-methyl]-amide]
[1]
  IC50: 0.996 µM
[2]; [3]
  IC50: ≥ 20 µM
β 2c/2i (trypsin-like)
  IC50: ≥ 20 µM
β 1i (caspase-like); [4]
  IC50: ≥ 20 µM
β 1c (caspase-like); [5]
  IC50: 18.3 µM

## COc1cc(C(F)(F)F)ccc1C(=O)NCCn1cnc(C(=O)NC(C#N)c2ccc(Br)cc2)c1 (stereo not drawn) [Example 93, 1-[2-(2-Methoxy-4-trifluoromethyl-benzoylamino)-ethyl]-1H-imidazole-4-carboxylic acid [(4-bromo-phenyl)-cyano-methyl]-amide]
[1]
  IC50: 0.497 µM
[2]; [3]
  IC50: ≥ 20 µM
β 2c/2i (trypsin-like)
  IC50: ≥ 20 µM
β 1i (caspase-like); [4]
  IC50: ≥ 20 µM
β 1c (caspase-like); [5]
  IC50: ≥ 20 µM
